According to patent US20170189444A1, “POLYMERIC COMPOSITIONS AND RELATED SYSTEMS AND METHODS FOR REGULATING BIOLOGICAL HYDROGELS” (CALIFORNIA INSTITUTE OF TECHNOLOGY, priority 2016, published 2017):

Key:
colonic mucus hydrogel [1] = assay: Ex vivo polymer-induced compression of washed colonic mucus hydrogel (1 μm microparticle method); parameters: species or system mice; details: 500 mM acetate
Source text: Each mouse was euthanized; the colon was removed and immediately flushed gently with ice-cold 1× PBS, and placed ˜1 cm long segments of the mid-colon in ice-cold PBS. […] The hydrogel thickness was detected through imaging of the washed tissue. […] This ensured that the microparticles deposited onto the mucus hydrogel surface. both the epithelium and the deposited microparticles were simultaneously imaged using confocal or two-photon reflectance microscopy. After measuring the initial washed mucus thickness, ˜0.2-2mL of the test polymer solution was gently deposited onto the exposed luminal surface and then collected the same 3D stacks at the same xy fields of view To measure the “percent compression”, or the overall percentage change in the thickness, of the colonic mucus after exposure to the polymer solution, the thickness was measured before and after exposure to the solution at the same five xy positions, using the distance between the epithelial surface and the deposited microparticles in the 3D stacks. To calculate the percentage compression, the percentage change in the thickness measured was calculated, as well as the measurement uncertainty (using the optical slice thickness as the experimental uncertainty in the measured thickness), at each of these five xy positions. The percentage compression was calculated as the mean of these five measured values. […]

colonic mucus hydrogel [2] = assay: Ex vivo penetration or exclusion of probes and polymers in adherent colonic mucus hydrogel; parameters: species or system mice; details: washed explant, incubated 1-2 h at 4° C.

Compound	mucus compression (colonic mucus hydrogel [1])	penetration into or exclusion from adherent mucus hydrogel (colonic mucus hydrogel [2])	penetration into or exclusion from adherent mucus hydrogel (colonic mucus hydrogel [2]; listed as Fluorescent PEG 200 kDa)
CC(=O)O [acetate]	≈ 10%		
FITC-dextran [fluorescent dextran 2 MDa]		penetrate the hydrogel	
Methoxyl polyethylene glycol-FITC [mPEG-FITC 200k]		Penetration of mucus	penetrate the hydrogel
